The values that follow are results of earlier work, collected in patent US5574025A, “Inhibitors of prenyl-protein transferases” (Merck & Co., Inc., priority 1994, dated 1996).

This series concerns Ras. To be noted: Hancock et al., Casey et al., Schafer et al.

For the compound `CC[C@H](C)C(=O)O[C@H]1C[C@@H](C)C=C2C=C[C@H](C)[C@H](CC[C@@H]3C[C@@H](O)CC(=O)O3)[C@H]21` [Lovastatin], the “Inhibition of Ras famesylation in vivo” value is on record as “Inhibition of Ras famesylation in vivo has been demonstrated”.
Regarding `CC[C@H](C)C(=O)O[C@H]1CCC=C2C=C[C@H](C)[C@H](CC[C@@H]3C[C@@H](O)CC(=O)O3)[C@H]21` [compactin], the “Inhibition of Ras famesylation in vivo” value is listed as “Inhibition of Ras famesylation in vivo has been demonstrated”.
